Assay results from the OPERA property sets (Mansouri et al. 2018).
Where a SMILES comes first, the peptide text is derived from it. [ ]: non-standard residue; d: D form. Orn = NCCC[CH](N)C(=O)O

In order of rising logP:
1. N=c1ccn2c(n1)OC1C(O)C(CCl)OC12 (stereo not drawn)  -3.1
2. NC(COCc1cccnc1)C(=O)O (stereo not drawn)  -2.44
3. C[C@H](O)C(=O)Nc1c(I)c(C(=O)NC(CO)CO)c(I)c(C(=O)NC(CO)CO)c1I  -2.42
4. COC1CC(OC2CCC3(C=O)C4CCC5(C)C(C6=CC(=O)OC6)CCC5(O)C4CCC3(O)C2)OCC1OC1CC(O)C(O)C(C)O1 (stereo not drawn)  -0.96
5. O=[N+]([O-])c1nccn1CCC(O)CO (stereo not drawn)  -0.9
6. Nc1ncnc2c1ncn2C1OC(CO)CC1O (stereo not drawn)  -0.61
7. CCN1C(=O)C(=O)c2c(C(N)=O)cccc2C1=O  -0.5
8. [N-]=[N+]=CC(=O)NCC(=O)N1CCOCC1  -0.47
9. CC(=O)Nc1ccnnc1  -0.41
10. O=C(NCCCCO)C(F)(F)Cn1ccnc1[N+](=O)[O-]  -0.29
11. CC(=O)NC(CCCCN)C(=O)NC(CC(C)C)C(N)=O (stereo not drawn) (Ac-Lys-Leu-NH2; configuration not given here)  -0.26
12. COc1c([N+](=O)[O-])nc(C)n1C  -0.09
13. O=C(Cn1c(=O)sc2ccc(Cl)cc21)N1CC[N+]([O-])(CCO)CC1  0.05
14. Cc1ncc([N+](=O)[O-])n1CCc1ccncc1  0.06
15. OCC1CC(F)C(n2cnc3c(F)ncnc32)O1 (stereo not drawn)  0.06
16. CC(=O)NC(CCCCN)C(=O)NC(Cc1ccccc1)C(N)=O (stereo not drawn)  0.12
17. NC(=O)C(=Cc1ccc([N+](=O)[O-])o1)c1ccco1  0.15
18. COC(O)Cn1c(Br)cnc1[N+](=O)[O-] (stereo not drawn)  0.16
19. CCCN(C=Nc1ccn(C2OC(CO)C(O)C2O)c(=O)n1)CCC (stereo not drawn)  0.24
20. COCCNC(=S)Cn1cnc([N+](=O)[O-])n1  0.25
21. Nc1nc(Cl)c2ncn(C3OC(CO)CC3F)c2n1 (stereo not drawn)  0.28
22. CCNC(=O)c1cccc2c1C(=O)C(=O)N(CC)C2=O  0.3
23. CCOC(=O)Cn1ccnc1[N+](=O)[O-]  0.33
24. CCCN(C=Nc1ccn(C2CC(O)C(CO)O2)c(=O)n1)CCC (stereo not drawn)  0.4
25. CC(=O)NC(CC(=O)O)C(=O)NC(Cc1ccccc1)C(=O)NC(CC(C)C)C(N)=O (stereo not drawn) (Ac-Asp-Phe-Leu-NH2; configuration not given here)  0.4
26. CC(=O)NC(CCCN)C(=O)NC(Cc1ccccc1)C(N)=O (stereo not drawn)  0.41
27. Cc1nc([N+](=O)[O-])c(C)[nH]1  0.43
28. OCC1CC(F)C(n2cnc3c(Br)ncnc32)O1 (stereo not drawn)  0.44
29. COC1=CC2CCC(NC(C)=O)c3cc(=O)c(OC)ccc3C2C(OC)=C1O (stereo not drawn)  0.47
30. Cc1ncc([N+](=O)[O-])n1CCOC(=O)N(C)C  0.47
31. CNN=Nc1ccc(C(N)=O)cc1  0.47
32. CC(=O)NC(CCCN)C(=O)NC(Cc1ccccc1)C(=O)NC(CC(C)C)C(N)=O (stereo not drawn) (Ac-[Orn]-Phe-Leu-NH2; configuration not given here)  0.54
33. CCOC(=O)Cn1cnc([N+](=O)[O-])c1I  0.57
34. CCC1COC(Cn2cncn2)(c2ccc(NC(=O)NC)cc2)O1 (stereo not drawn)  0.62
35. C=Cc1ncc([N+](=O)[O-])n1C  0.62
36. CCCC(CCC)(NC(C)=O)C(N)=O  0.75
37. CC(C)CN1C(=O)NC(=O)C(=O)C1=O  0.76
38. CCN(CC)C(=O)c1cccc2c1C(=O)C(=O)N(CC)C2=O  0.78
39. CCOc1ncnc2c1ncn2C1OC(CO)CC1F (stereo not drawn)  0.8
40. Cc1[nH]cnc1CSCCNc1cc(=O)cc[nH]1  0.8
41. CCC1COC(Cn2cncn2)(c2ccc(C(=N)N)cc2)O1 (stereo not drawn)  0.85
42. CC(C)(C)n1ccnc1C=NO  0.85
43. Cc1nc(Cl)c([N+](=O)[O-])n1C  0.87
44. NC(=Nc1ccccc1)NN=Cc1ccc2ccccc2n1  0.99
45. COc1ccc(C(=O)NP(=O)(N2CC2)N2CC2)cc1  1.08
46. C1CC2=NOS3=C2C(=NO3)C1  1.1
47. NC(=O)CC(CC(=O)O)c1ccc(Br)cc1 (stereo not drawn)  1.12
48. COc1ccc(-n2ccc(=O)c(O)c2C)cc1  1.27
49. CN(C)N=Nc1nccs1  1.27
50. Cc1ncc([N+](=O)[O-])n1CCSC(=S)N(C)C  1.28
51. CCCCCC(NC(C)=O)C(=O)OC (stereo not drawn)  1.28
52. CCOC(=O)Oc1cccc(C2(C(=O)CC)CCN(C)CC2)c1  1.29
53. Cn1nnnc1SCC1=C(C(=O)OCOC(=O)C(C)(C)C)N2C(=O)C(NC(=O)Cc3csc(N)n3)C2SC1 (stereo not drawn)  1.36
54. C=CCOC1=NS(=O)(=O)c2ccccc21  1.4
55. Oc1ccc(O)c2ncccc12  1.42
56. Cc1n[nH]c(C(=O)NCc2ccccc2)c1[N+](=O)[O-]  1.49
57. CNC(=NC#N)NCCCCc1ncccc1OC  1.5
58. O=C(O)C(Cc1ccc(O)cc1)n1cccc1 (stereo not drawn)  1.56
59. CN1C(C(=O)Nc2nccs2)=C(O)c2ccccc2S1(=O)=O  1.64
60. COC(=O)CNC(=O)C1(O)C(C)CC2C3CCC4=CC(=O)C=CC4(C)C3(F)C(O)CC21C (stereo not drawn)  1.69
61. COc1ccc(NC(=O)OCCN2CCOCC2)cc1  1.7
62. COc1ccc(OC)c(Cc2cnc(N)nc2N)c1  1.7
63. CC(=O)OC1CC(OC2CCC3(C)C(CCC4C3CC(O)C3(C)C(C5=CC(=O)OC5)CCC43O)C2)OC(C)C1OC1CC(O)C(OC2CC(O)C(O)C(C)O2)C(C)O1 (stereo not drawn)  1.71
64. CC(C)(C)c1ccc2c(c1)OCCOCCOCCOCCOCCO2  1.71
65. COc1cc2c(c(OC)c1OC)-c1ccc(OC)c(=O)cc1C(NC(=O)C(F)(F)F)CC2 (stereo not drawn)  1.72
66. COc1ccc2ccc(=O)oc2c1  1.74
67. C=CCn1cnc2c(=O)[nH]c(Nc3ccccc3)nc21  1.75
68. CC(=O)OC1C(=O)C2(C)C(O)CC3OCC3(OC(C)=O)C2C(OC(=O)c2ccccc2)C2(O)CC(OC(=O)C(O)CNC(=O)c3ccccc3)C(C)=C1C2(C)C (stereo not drawn)  1.75
69. COC(=O)C1CC2C3CCC4=CC(=O)C=CC4(C)C3(F)C(O)CC2(C)C1C(=O)CO (stereo not drawn)  1.78
70. Cn1c([N+](=O)[O-])cnc1COc1ccc(Cl)cc1  1.8
71. CC1(c2ccccc2)OC(=O)NC1=O (stereo not drawn)  1.85
72. NC(=O)c1ccc2ccccc2c1  1.88
73. CNc1nccn2cc(-c3ccc(S(C)=O)cc3OC)nc12 (stereo not drawn)  1.88
74. O=C(O)c1ccc(CCl)cc1  2.12
75. Sc1nc(-c2ccccc2)ns1  2.13
76. COC(=O)CCCCC(S)CCS (stereo not drawn)  2.27
77. C#CCC(O)(c1cccnc1)c1ccc(Cl)cc1Cl (stereo not drawn)  2.29
78. CNC(=O)OCc1c2c(n3c1C(OC(C)=O)CC3)C(=O)C(C)=C(OC)C2=O (stereo not drawn)  2.39
79. COc1nc(N)nc(C(Cl)(Cl)Cl)n1  2.39
80. O=C(O)CCCCC(S)CCS (stereo not drawn)  2.41
81. Cc1ccc(NN=C(C#N)C#N)c([N+](=O)[O-])c1  2.5
82. CC(=O)OC1(c2ccccc2)CCN(C)C(C)C1C (stereo not drawn)  2.52
83. CC(OCc1cn(C)c(C=NO)n1)C(C)(C)C (stereo not drawn)  2.53
84. CCCNC(=O)C1(O)C(C)CC2C3CCC4=CC(=O)C=CC4(C)C3(F)C(O)CC21C (stereo not drawn)  2.59
85. CC(C)(C)C(COc1ccc(S(C)(=O)=O)cc1)OC(=O)n1ccnc1 (stereo not drawn)  2.59
86. c1ccc(Cn2cccc2)cc1  2.71
87. CC1CC2C3CCC4=CC(=O)C=CC4(C)C3(F)C(O)CC2(C)C1(O)C(=O)NCCCl (stereo not drawn)  2.73
88. CCC(CC)C(=O)NS(=O)(=O)c1ccc(C(F)(F)F)cc1N  3.04
89. CC1=CCC2C(C1)c1c(O)cc(NS(C)(=O)=O)cc1OC2(C)C (stereo not drawn)  3.12
90. CCC1(C(C)c2ccccc2)C(=O)NC(=O)N(C)C1=O (stereo not drawn)  3.14
91. Cc1ccc(SCCNc2ccccc2C(N)=O)cc1  3.15
92. CC1OC(OC2C(C)OC(OC3C(C)OC(OC4CCC5(C)C(CCC6C5CCC5(C)C(C7=CC(=O)OC7)C(OC=O)CC65OC=O)C4)CC3OC=O)CC2OC=O)CC(O)C1OC=O (stereo not drawn)  3.16
93. CC1=C(c2ccccc2)CCN(C)C1  3.18
94. OC1CCN(CCCc2ccccc2COc2ccccc2)CC1  3.21
95. C[Si](C)(C)C  3.24
96. CCCCOc1ccccc1NC(=O)OCCN1CCOCC1  3.25
97. O=C(c1ccc(F)cc1)C1CCN(CCn2c(=O)[nH]c3ccccc3c2=O)CC1  3.29
98. C#CCOc1c(Cl)cc(NC=NOC)cc1Cl  3.3
99. CCCn1c(=O)c2[nH]c(-c3ccc(S(=O)(=O)NCCN(C)C)cc3)nc2n(CCC)c1=O  3.32
100. COc1nc(N(C)C)nc(C(Cl)(Cl)Cl)n1  3.33
101. FC(F)(F)C(F)(F)c1ccccc1  3.36
102. CCCCCCOC(=O)Oc1cccc(C2(C(=O)CC)CCN(C)CC2)c1  3.38
103. CCOc1ccc(OCc2ccccc2CCCN2CCC(O)CC2)cc1  3.42
104. O=C(c1c[nH]c2ccccc12)C(F)(F)F  3.44
105. C#CCOc1c(Cl)cc(NC=NOCSC)cc1Cl  3.6
106. c1ccc(SCc2ccc(CCCN3CCOCC3)cc2)cc1  3.62
107. OC1CCN(CCCc2ccc(CSc3ccccc3)cc2)CC1  3.67
108. C[Si](Cn1cncn1)(c1ccc(F)cc1)c1ccc(F)cc1  3.7
109. C#CCOc1c(Cl)cc(NC=NOCCCl)cc1Cl  3.7
110. ClC(Cl)(Cl)c1nc(C(Cl)(Cl)Cl)nc(C(Cl)(Cl)Cl)n1  3.75
111. CCCSP(=O)(OCC)Oc1cnn(-c2ccc(Cl)cc2)c1 (stereo not drawn)  3.77
112. OC1CCN(CCCc2ccccc2CSc2ccccc2)CC1  3.85
113. Cc1cc(C)cc(Cl)c1  3.88
114. Cc1ccc(Cl)c(Cl)c1  3.95
115. CCCn1c(=O)c2[nH]c(-c3ccc(Cl)cc3N)nc2n(CCC)c1=O  4.02
116. CCCCc1ccc(C(=O)OCCN(C)C)cc1  4.06
117. COc1ccc2[nH]c3c(c2c1)CCNc1cc(Cl)ccc1-3  4.24
118. CCC(C)(C)c1ccc(C2CCCC(O)C2)c(O)c1 (stereo not drawn)  4.32
119. O=[N+]([O-])c1c(Cl)c(Cl)cc(Cl)c1Cl  4.38
120. CCCCCCOc1ccc(NC(=O)OCCN2CCOCC2)cc1  4.51
121. CCCCCCNC(=O)C1(O)C(C)CC2C3CCC4=CC(=O)C=CC4(C)C3(F)C(O)CC21C (stereo not drawn)  4.54
122. CCCCCCOc1cccc(NC(=O)OCCN2CCOCC2)c1  4.73
123. C#CCOc1c(Cl)cc(NC=NOc2ccc(C)cc2)cc1Cl  4.8
124. CCCCCCCOc1ccc(NC(=O)OCCN2CCOCC2)cc1  4.96
125. CCCCCOc1ccccc1NC(=O)OCCN1CCCCC1  4.97
126. C(=C\c1ccccc1)/CN1CCN(C(c2ccccc2)c2ccccc2)CC1  5.77
127. Clc1ccc(-c2c(Cl)c(Cl)cc(Cl)c2Cl)cc1Cl  7.2
128. Clc1ccc(-c2c(Cl)c(Cl)c(Cl)c(Cl)c2Cl)cc1  7.31
